The values below come from PubChem BioAssay (NCI).

Test systems include IGROV1 ovarian; MDA-MB-231 breast; COLO 205 colon; RPMI-8226 leukemia; SN12C renal; HCC-2998 colon; HL-60(TB) leukemia; KM12 colon; UO-31 renal; NCI-H460 lung.
What all share (test): DTP human tumour cell line panel, 48 h

What is called TGI is the concentration at which net growth stops. A word on the GI50: it is the concentration giving 50% growth inhibition.

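48-hour exposure; five concentrations; linearly interpolated endpoints. Here, GI50 denotes the concentration required for 50% inhibition of growth. At the TGI there is no net growth.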

As to `O=c1[nH]c(=O)n(C2OC(CO)C(O)C2O)cc1F` (stereo unspecified), the TGI in the assay with IGROV1 ovarian was 3.12 µM; in the assay with MDA-MB-231 breast, over 100 µM; with COLO 205 colon, 18.7 µM; in the assay with RPMI-8226 leukemia, 44.8 µM; with SN12C renal it was over 100 µM; in the assay with HCC-2998 colon, 54.2 µM. Moreover, the TGI in the assay with HL-60(TB) leukemia is 26.3 µM; with KM12 colon it was 51.9 µM; in the assay on UO-31 renal, 1.91 µM; in the assay on NCI-H460 lung, 1.01 µM. For the same compound, the GI50 in the assay with COLO 205 colon is 44.7 nM; in the assay with RPMI-8226 leukemia it was 0.0742 µM; with HCC-2998 colon it was 34.6 nM; in the assay on HL-60(TB) leukemia, 25 nM; in the assay with KM12 colon it was 0.0267 µM; with NCI-H460 lung, 4.63 nM.
Consider `Nc1nc(N)c(-c2ccc(Cl)c(Cl)c2)c(CP(Cl)(Cl)(Cl)Br)n1`, for which the GI50 in the assay on IGROV1 ovarian was 8.92 µM; in the assay on MDA-MB-231 breast, 9620 nM; with COLO 205 colon, 10400 nM; in the assay with RPMI-8226 leukemia, 17.3 µM; in the assay with SN12C renal it was 6470 nM; with HCC-2998 colon, 19900 nM. Moreover, the GI50 in the assay on HL-60(TB) leukemia is 4070 nM; in the assay on KM12 colon it was 14.3 µM; in the assay on UO-31 renal, 17.5 µM; with NCI-H460 lung, 1580 nM. Moreover, the TGI was 61.8 µM in the assay with IGROV1 ovarian; over 100 µM with MDA-MB-231 breast; over 100 µM with COLO 205 colon; over 100 µM with RPMI-8226 leukemia; over 100 µM in the assay with SN12C renal; over 100 µM in the assay on HCC-2998 colon. Besides, the TGI with HL-60(TB) leukemia is 31.6 µM; in the assay with KM12 colon it was over 100 µM; with UO-31 renal it was over 100 µM; in the assay with NCI-H460 lung it was over 100 µM.
Regarding `C[C@@H](Oc1cc(-c2cnn(C3CCNCC3)c2)cnc1N)c1c(Cl)cc(F)cc1Cl`, the GI50 in the assay with IGROV1 ovarian was 3.31 µM; in the assay on MDA-MB-231 breast, 1610 nM; with COLO 205 colon, 857 nM; in the assay on RPMI-8226 leukemia, 2.41 µM; in the assay on SN12C renal, 1950 nM; in the assay on HCC-2998 colon, 2420 nM. In addition, the GI50 was 917 nM in the assay on HL-60(TB) leukemia, 0.0496 µM in the assay on KM12 colon, 3.16 µM in the assay with UO-31 renal and 902 nM in the assay with NCI-H460 lung. The TGI in the assay on IGROV1 ovarian came out at 16.7 µM; in the assay with MDA-MB-231 breast, 5.22 µM; in the assay on COLO 205 colon, 2.45 µM; with RPMI-8226 leukemia it was 8.6 µM; with SN12C renal, 13.3 µM; in the assay on HCC-2998 colon, 8.65 µM. In addition, the concentration for total growth inhibition (TGI) was found to be 2.95 µM with HL-60(TB) leukemia, 2.93 µM with KM12 colon, 13.2 µM in the assay on UO-31 renal and 5.4 µM in the assay on NCI-H460 lung.
`Cc1ccc(NC2=CC(=O)C(=O)c3ccccc32)cc1`: the GI50 is 2.73 µM with IGROV1 ovarian; 2570 nM in the assay on MDA-MB-231 breast; 1650 nM with COLO 205 colon; 3.55 µM with RPMI-8226 leukemia; 1650 nM in the assay with SN12C renal; 2110 nM with HCC-2998 colon. Besides, the GI50 was 2770 nM with HL-60(TB) leukemia, 2.59 µM with KM12 colon, 1.17 µM in the assay with UO-31 renal and 1700 nM in the assay on NCI-H460 lung. Besides, the TGI in the assay with IGROV1 ovarian was 12.9 µM; in the assay with MDA-MB-231 breast it was 15.8 µM; in the assay on COLO 205 colon, 3.1 µM; in the assay on RPMI-8226 leukemia it was over 100 µM; with SN12C renal, 3.32 µM; in the assay with HCC-2998 colon it was 4.89 µM. The TGI is over 100 µM with HL-60(TB) leukemia, 9.73 µM in the assay on KM12 colon, 3.79 µM in the assay with UO-31 renal and 3.94 µM in the assay with NCI-H460 lung.
As for `OCC1OC(n2cnc3c(NCc4ccccc4O)ncnc32)C(O)C1O` (stereo unspecified), the GI50 was 0.649 µM in the assay with IGROV1 ovarian; 76.9 nM with MDA-MB-231 breast; 524 nM in the assay with COLO 205 colon; 5.11 µM with RPMI-8226 leukemia; 178 nM in the assay with SN12C renal; 1760 nM in the assay on HCC-2998 colon. Moreover, the GI50 in the assay on HL-60(TB) leukemia was 228 nM; in the assay on KM12 colon it was 5.23 µM; in the assay on UO-31 renal, 0.717 µM; in the assay on NCI-H460 lung it was 8570 nM. For the same compound, the TGI in the assay with IGROV1 ovarian is 10.5 µM; with MDA-MB-231 breast, 3.28 µM; with COLO 205 colon, over 24.4 µM; in the assay with RPMI-8226 leukemia, over 63.6 µM; with SN12C renal, 20 µM; with HCC-2998 colon it was 8.42 µM. Further, the TGI is 0.92 µM with HL-60(TB) leukemia, over 100 µM in the assay on KM12 colon, 13.8 µM with UO-31 renal and 46.3 µM with NCI-H460 lung.
Regarding `Cc1cc(OCc2nn(CN3CCN(C)CC3)c(=S)n2/N=C/c2ccc(F)cc2)ccc1Cl`, the GI50 with IGROV1 ovarian is 16.2 µM; in the assay with MDA-MB-231 breast, 18500 nM; in the assay with COLO 205 colon it was 12600 nM; in the assay on RPMI-8226 leukemia it was 16.8 µM; in the assay with SN12C renal, 16900 nM; in the assay with HCC-2998 colon, 18800 nM. Also, the GI50 in the assay on HL-60(TB) leukemia was 17400 nM; in the assay with KM12 colon it was 17.9 µM; in the assay on UO-31 renal it was 17.6 µM; in the assay with NCI-H460 lung, 17000 nM. For the same compound, the TGI was 30.5 µM in the assay with IGROV1 ovarian; 36 µM in the assay with MDA-MB-231 breast; 25.7 µM in the assay on COLO 205 colon; 40.7 µM in the assay on RPMI-8226 leukemia; 31 µM in the assay on SN12C renal; 33.1 µM with HCC-2998 colon. In addition, the TGI came out at 40 µM in the assay with HL-60(TB) leukemia, 37.5 µM with KM12 colon, 32.9 µM with UO-31 renal and 31.8 µM in the assay with NCI-H460 lung.
